“Also recorded” adds a separate entry of the source. Like-named read-outs stand apart in the source and are kept apart here.
Tests used:
PDE4 = PDE4 (Homo sapiens, UniProt Q08499); assay: In vitro enzymatic activity assay: inhibitory activities of 2-arylbenzofurans towards PDE4 (3H-cAMP substrate); assay type: biochemical; conditions: for inhibition at 0.1 µM: read-out: PDE4 inhibition 100 nM
Description: Protocols for the expression and enzyme assay of PDE isoforms were similar to our previous works.[98], [99], [100] Briefly, the recombinant plasmid was transformed into Escherichia coli competent cells BL21 (CodonPlus) and cultured in LB medium at 37°C until the optical density at 600 nm (A600) reached .6–.8. Induction of protein expression was achieved by adding .1 mM isopropyl β‐D‐thiogalactopyranoside (IPTG), followed by further incubation at 15°C for 24 h. The recombinant proteins were then purified using a Ni‐NTA column (Qiagen), a Q column (GE Healthcare), and a Superdex 100 column (GE Healthcare), and Superdex 100 column (GE Healthcare). The enzymatic activities of PDEs were measured by using ^3H‐cAMP or ^3H‐cGMP (GE Healthcare) as substrates. The assay buffer contains 20 mM Tris‐HCl (pH 7.5), 10 mM MgCl2 or 4.0 mM MnCl2, 1.0 mM dithiothreitol, and 10–30 nM ^3H‐cAMP or ^3H‐cGMP (20 000–30 000 cpm/assay). The reaction was conducted at room temperature for 15 min and then terminated by adding .2 M ZnSO4. The reaction products, 3H‐AMP or 3H‐GMP, were precipitated with .2 N Ba(OH)2, while unreacted 3H‐cAMP or 3H‐cGMP remained in the supernatant. […] For the measurement of IC50, eight concentrations at least were used and IC50 values were calculated by the nonlinear regression.

[1] = system: HIF-1α, CCN2, p-AKT and p-ERK in MC38 cells; assay: Western blot / immunofluorescence / mRNA of HIF-1α, CCN2, p-AKT, p-ERK in MC38 cells; assay type: cell-based, murine; conditions: for mRNA and protein levels of CCN2: HIF-1α inhibitor treatment
Description: Western blot was performed using the following antibodies: anti‐phospho‐ERK (CST, #4370), anti‐ERK (CST, #4695), anti‐phospho‐AKT (CST, #4060), anti‐AKT (CST, #9272), anti‐beta‐tubulin (CST, #86298), anti‐PDE4D (Abcam, ab171750) and anti‐CCN2 (Abcam, ab6992). […] The blots were blocked with 5% non‐fat milk and incubated overnight at 4°C with the primary antibody. Afterward, the blots were incubated for 1 h with the secondary antibody and subsequent imaging was carried out by BIO‐RAD Chemidoc MP imaging system. Relative protein levels were corrected for beta‐tubulin or beta‐actin.

MC38 cells [2] = assay: Wound healing scratch migration assay; assay type: cell-based, murine; conditions: 24 h and 48 h
Description: For migration assays (wound healing assays), cells were seeded in 6‐well plates and grown until confluence. Cells were scraped in each well, the medium was replaced with medium with 2% FBS to block cell proliferation. After 24 h or 48 h, the photographs of each well were obtained.

MC38 cells [3] = assay: RNA sequencing of treated MC38 cells; assay type: cell-based, murine
Description: RNA integrity was assessed using the RNA Nano 6000 Assay Kit on the Bioanalyzer 2100 system (Agilent Technologies, CA, USA). Total RNA was used as input for RNA sample preparation. Briefly, mRNA was purified from total RNA using poly‐T oligo‐attached magnetic beads. Fragmentation was performed using divalent cations at elevated temperature in First Strand Synthesis Reaction Buffer (5X). First‐strand cDNA was synthesised using a random hexamer primer and M‐MuLV Reverse Transcriptase (RNase H‐). Second‐strand cDNA synthesis was then carried out using DNA Polymerase I and RNase H. The remaining overhangs were converted to blunt ends via exonuclease/polymerase activities. After adenylation of the 3′ ends of the DNA fragments, adaptors with a hairpin loop structure were ligated to prepare for hybridisation. To select cDNA fragments in the preferred size range of 370–420 bp, the library fragments were purified using the AMPure XP system (Beckman Coulter, Beverly, USA). PCR amplification was performed using Phusion High‐Fidelity DNA polymerase, universal PCR primers, and an index (X) primer. The PCR products were then purified again using the AMPure XP system, and the library quality was assessed on the Agilent Bioanalyzer 2100 system. […] After cluster generation, the library preparations were sequenced on the Illumina NovaSeq platform, generating 150 bp paired‐end reads.

MC38 liver metastases = assay: Liver metastasis model, intrasplenic injection of MC38-Luc cells; assay type: in vivo, mice; conditions: for bioluminescence of mice in the liver: day 18
Description: (§1) A murine colon cancer cell line (MC38) stably transfected with the firefly luciferase (Luc) gene (Addgene plasmid #17477) was generated. To establish a model of liver metastases mice were anaesthetised with ketamine. Then the spleens were exposed to allow direct intrasplenic injections of 5 × 10^5 Luc‐labelled MC38 (MC38‐Luci) cells in 50 µL 1 mM EDTA in PBS. Mice were sacrificed 18 days after injection of the tumour cells, then spleen and liver were analysed immediately. For ex vivo imaging, female mice were administered by intraperitoneal injection with d‐luciferin (150 mg/kg; Perkin Elmer). Ten minutes later, mice were sacrificed, the livers were collected and […] the ex vivo IVIS Lumina III system (Perkin Elmer). Collected images were analysed using Living Image 4.3.1 software (Perkin Elmer): ROIs were drawn around each liver and radiant efficiency calculated.

MC38 cells [4] = assay: Cell viability assay (CCK8); assay type: cell-based, murine
Description: A total of 2000–5000 cells were seeded in 96‐well plates for an overnight culture. The medium was then replaced with fresh medium supplemented with varying concentrations of drugs. […]

[5] = Emetic assay on beagle dogs; assay type: in vivo
Description: All animal care and experimental protocols were conducted in accordance with the Guide for the Care and Use of Laboratory Animals (National Institutes of Health Publication, revised 1996, no. 86‐23, Bethesda, MD) and were approved by the Institutional Animal Research Ethics Committee of Sun Yat‐Sen University. (IACUC numbers: […]‐2021‐000130). […] Animals are watched continuously for 180 min for the behaviour of retching, excessive salivation, and vomiting.

MC38 cells [6] = assay: Transwell migration assay, MC38; assay type: cell-based, murine
Description: To access cell migration, 1.0 × 10^5 cells were seeded into the 8‐µm‐pore upper chambers in serum‐free RPMI1640 and incubated in RPMI1640 with 10% FBS of the lower chamber of 12‐well plates (Corning Star). After normal culture for 24 h, cells were permeabilised with 100% methanol and then stained with .1% crystal violet.

PDE4D2 = system: PDE4D2; parameters: method as in PMID 22483586; conditions: cited from earlier work
PDE4B2 = system: PDE4B2; parameters: method as in PMID 22483586; conditions: cited from earlier work
PDE3A (679-1087) = PDE3A (679-1087) (Homo sapiens, UniProt Q14432); assay: biochemical
Description: (§2) Briefly, the recombinant plasmid was transformed into Escherichia coli competent cells BL21 (CodonPlus) and cultured in LB medium at 37°C until the optical density at 600 nm (A600) reached .6–.8. Induction of protein expression was achieved by adding .1 mM isopropyl β‐D‐thiogalactopyranoside (IPTG), followed by further incubation at 15°C for 24 h. The recombinant proteins were then purified using a Ni‐NTA column (Qiagen), a Q column (GE Healthcare), and a Superdex 100 column (GE Healthcare), and Superdex 100 column (GE Healthcare). The enzymatic activities of PDEs were measured by using ^3H‐cAMP or ^3H‐cGMP (GE Healthcare) as substrates. The assay buffer contains 20 mM Tris‐HCl (pH 7.5), 10 mM MgCl2 or 4.0 mM MnCl2, 1.0 mM dithiothreitol, and 10–30 nM ^3H‐cAMP or ^3H‐cGMP (20 000–30 000 cpm/assay). The reaction was conducted at room temperature for 15 min and then terminated by adding .2 M ZnSO4. The reaction products, 3H‐AMP or 3H‐GMP, were precipitated with .2 N Ba(OH)2, while unreacted 3H‐cAMP or 3H‐cGMP remained in the supernatant. The radioactivity of the supernatant was measured in 2.5 mL of Ultima Gold liquid scintillation cocktail (Fisher Scientific) using a PerkinElmer 2910 liquid scintillation counter. For the measurement of IC50, eight concentrations at least were used and IC50 values were calculated by the nonlinear regression.

PDE1B (10-487) = PDE1B (10-487) (Homo sapiens, UniProt Q01064); assay: biochemical
Description: as §2

PDE5A1 (535-860) = PDE5A1 (535-860) (Homo sapiens, UniProt O76074); assay: In vitro enzymatic activity assay, PDE selectivity panel: PDE5A1; assay type: biochemical
Description: as §2

PDE7A1 (130-482) = PDE7A1 (130-482) (Homo sapiens, UniProt Q13946); assay: In vitro enzymatic activity assay, PDE selectivity panel: PDE7A1; assay type: biochemical
Description: as §2

[7] = 2-week repeated administration in rats: overall long-term safety
[8] = Safety in liver metastasis model mice (body weight curve, H&E of heart, lung, kidney); assay type: in vivo
Description: as §1

[9] = mice, MC38-Luc intrasplenic, two weeks of treatment

Chain of PDE4 (Q08499 388-715): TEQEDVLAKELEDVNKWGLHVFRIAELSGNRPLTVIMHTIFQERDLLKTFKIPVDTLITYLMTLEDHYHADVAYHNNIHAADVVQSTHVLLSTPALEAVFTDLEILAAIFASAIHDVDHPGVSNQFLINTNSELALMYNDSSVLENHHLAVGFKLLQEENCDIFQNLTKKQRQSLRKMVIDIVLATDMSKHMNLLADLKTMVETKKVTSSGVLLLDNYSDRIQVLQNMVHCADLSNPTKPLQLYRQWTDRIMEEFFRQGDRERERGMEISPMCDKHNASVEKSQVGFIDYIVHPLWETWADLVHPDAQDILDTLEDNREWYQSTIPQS
Chain of PDE7A1 (130-482) (Q13946 130-482): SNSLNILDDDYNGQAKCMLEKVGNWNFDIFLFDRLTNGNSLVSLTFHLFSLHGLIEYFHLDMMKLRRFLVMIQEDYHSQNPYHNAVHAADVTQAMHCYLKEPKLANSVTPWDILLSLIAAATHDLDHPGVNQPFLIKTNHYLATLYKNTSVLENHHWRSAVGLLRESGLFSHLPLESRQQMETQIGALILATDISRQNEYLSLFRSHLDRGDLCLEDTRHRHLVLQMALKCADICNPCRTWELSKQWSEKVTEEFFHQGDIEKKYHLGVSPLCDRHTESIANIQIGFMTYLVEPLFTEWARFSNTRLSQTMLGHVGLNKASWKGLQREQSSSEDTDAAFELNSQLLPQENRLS
Chain of PDE3A (679-1087) (Q14432 679-1087): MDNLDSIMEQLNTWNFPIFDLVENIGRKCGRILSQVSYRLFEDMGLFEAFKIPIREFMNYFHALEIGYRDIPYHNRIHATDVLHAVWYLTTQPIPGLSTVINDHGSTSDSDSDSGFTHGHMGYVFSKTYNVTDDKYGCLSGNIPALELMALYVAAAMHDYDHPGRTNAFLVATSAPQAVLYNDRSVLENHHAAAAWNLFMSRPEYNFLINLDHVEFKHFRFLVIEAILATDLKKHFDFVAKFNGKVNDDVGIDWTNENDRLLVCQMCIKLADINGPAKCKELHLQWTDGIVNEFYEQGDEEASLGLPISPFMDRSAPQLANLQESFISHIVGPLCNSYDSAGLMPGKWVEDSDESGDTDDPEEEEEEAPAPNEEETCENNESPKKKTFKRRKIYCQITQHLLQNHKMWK
Chain of PDE1B (10-487) (Q01064 10-487): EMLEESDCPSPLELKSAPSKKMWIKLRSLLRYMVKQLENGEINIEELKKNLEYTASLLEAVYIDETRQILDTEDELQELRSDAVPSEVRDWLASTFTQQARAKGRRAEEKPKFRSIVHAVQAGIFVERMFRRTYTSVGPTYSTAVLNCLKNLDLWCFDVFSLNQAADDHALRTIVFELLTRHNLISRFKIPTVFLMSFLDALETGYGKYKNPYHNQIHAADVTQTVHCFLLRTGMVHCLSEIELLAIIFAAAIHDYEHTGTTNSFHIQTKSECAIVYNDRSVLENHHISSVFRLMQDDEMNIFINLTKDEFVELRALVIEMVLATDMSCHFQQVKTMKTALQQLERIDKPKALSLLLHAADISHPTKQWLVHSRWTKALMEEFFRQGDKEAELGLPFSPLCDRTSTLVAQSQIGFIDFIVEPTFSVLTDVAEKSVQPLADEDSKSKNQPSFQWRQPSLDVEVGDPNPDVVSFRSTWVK

Compound COc1cccc(Nc2cc(-c3cc4ccc(Cl)cc4o3)ccc2C(N)=O)c1 [L5] has an inhibition at 1 µM (PDE4) of 36.9% and an inhibition at 0.1 µM (PDE4) of 15.9%.
With O=C(Nc1c(Cl)cncc1Cl)c1ccc(OC(F)F)c(OCC2CC2)c1 [Roflumilast, roflumilast] the “HIF-1α and CCN2 expression levels (western blot)” value ([1]; 24 h) was “inhibited”, the “protein level of CCN2 (immunofluorescence)” value ([1]; 48 h) was “decreased significantly” and the “migration, scratch wound closure” value (MC38 cells [2]) was “significantly inhibited the migration”. The “expression of eight cell adhesion pathway genes (CCN2, LAMB3, EGFL7, EPHA8, COL7A1, AMIGO2, COL6A3, CDH26)” value (MC38 cells [3]) was “relatively low expression”, the “bioluminescence of mice in the liver” value (MC38 liver metastases) was “significant decrease” and the “liver metastases (liver images and bioluminescence images)” value (MC38 liver metastases; [9]) was “fewer metastatic lesions”. The “metastasis sites, liver total flux (and liver weight), quantitative statistics” value (MC38 liver metastases; [9]) was “could inhibit liver metastasis”, the “cell viability / growth (CCK8 assay)” value (MC38 cells [4]) was “less toxicity” and the “No. of animals with emesis/No. of test animals” value ([5]; 1.0 mg/kg po) was 3/3. For the same compound, the “migration, transwell assay” value (MC38 cells [6]; combined with siCCN2) was “could not inhibit tumour metastases” and the “migration, transwell assay” value (MC38 cells [6]; combined with siHIF1A) was “Same result”.
Work on COc1cccc(Nc2cc(-c3cc4ccc(O)cc4o3)ccc2C(N)=O)c1 [L2] yielded an IC50 (PDE4) of 181 ± 13 nM, an inhibition at 1 µM (PDE4) of 68.5% and an inhibition at 0.1 µM (PDE4) of 48.6%.
COc1cccc(Nc2cc(-c3cc4cccc(OC)c4o3)ccc2C(N)=O)c1 [L4] showed an inhibition at 1 µM (PDE4) of 59.5% and an inhibition at 0.1 µM (PDE4) of 28.9%.
With COc1cc2c(cc1O)CC[C@@H]1[C@@H]2CC[C@]2(C)[C@@H](O)CC[C@@H]12 [2‐MEOE2] the “mRNA and protein levels of CCN2” value [1] was “significant decrease”.
In the case of Oc1cc(O)cc(-c2cc3ccc(O)cc3o2)c1 [Moracin M], the IC50 (PDE4D2) is given as 2900 nM and the IC50 (PDE4B2) is given as 4500 nM.
Compound COc1cccc(Nc2cc(-c3cc4cc(F)ccc4o3)ccc2C(N)=O)c1 [L6] has an inhibition at 1 µM (PDE4) of 55.5% and an inhibition at 0.1 µM (PDE4) of 30.3%.
In the case of COc1cccc(-c2cc(=O)c3ccccc3o2)c1N [PD98095], the “migration, transwell assay” value (MC38 cells [6]) is reported as “significantly inhibit MC38 metastases”.
COc1cccc(Nc2cc(-c3cc4cc(OC)ccc4o3)ccc2C(N)=O)c1 [L3] showed an inhibition at 1 µM (PDE4) of 24.1% and an inhibition at 0.1 µM (PDE4) of 17%.
Compound COc1cccc(Nc2cc(-c3cc4ccccc4o3)ccc2C(N)=O)c1 [L1] has an inhibition at 1 µM (PDE4) of 55.7% and an inhibition at 0.1 µM (PDE4) of 41.9%.
Oc1ccc2cc(-c3ccc(OC(F)F)c(OC4CCCC4)c3)oc2c1 [L13] gave an IC50 (PDE4) of 145 ± 2.3 nM, an inhibition at 1 µM (PDE4) of 92.2% and an inhibition at 0.1 µM (PDE4) of 42.7%.
For NC(=O)c1ccc(-c2cc3ccc(O)cc3o2)cc1Nc1cccc(Cl)c1 [L7], the IC50 (PDE4) was 197 ± 37.4 nM, the inhibition at 1 µM (PDE4) was 77.5% and the inhibition at 0.1 µM (PDE4) was 44.1%.
NC(=O)c1ccc(-c2cc3ccc(O)cc3o2)cc1Nc1cccc(F)c1 [L8] showed an inhibition at 1 µM (PDE4) of 61.6% and an inhibition at 0.1 µM (PDE4) of 30.6%.
For Oc1ccc2cc(-c3ccc(OC(F)F)c(OCC4CC4)c3)oc2c1 [L11], the “levels of CCN2, p-AKT and p-ERK” value [1] was “significantly repressed”, the IC50 (PDE3A (679-1087)) was greater than 10000 nM and the IC50 (PDE1B (10-487)) was greater than 10000 nM. The IC50 (PDE5A1 (535-860)) was 3000 nM, the “bioluminescence of mice in the liver” value (MC38 liver metastases) was “significant decrease” and the “liver metastases (liver images and bioluminescence images)” value (MC38 liver metastases; [9]) was “significantly inhibit tumour metastases”. The “metastatic areas in the liver (H&E staining)” value (MC38 liver metastases; mice, after treatment) was “significantly suppressed liver metastases”, the “cell viability / growth (CCK8 assay)” value (MC38 cells [4]) was “significantly inhibit the growth” and the IC50 (MC38 cells [4]; Mus musculus, MC-38) was roughly 20000 nM. For the same compound, the IC50 (PDE7A1 (130-482)) was 2290 nM, the “food intake, weight, haematology indicators and serum test indicators” value ([7]; 30 mg/kg or 100 mg/kg intraperitoneal injection for 2 weeks) was “no abnormal changes” and the “adverse effects on body weight or other signs of overt toxicity” value ([7]; daily doses of up to 100 mg/kg for 2 weeks) was “did not cause any adverse effects”. The “No. of animals with emesis/No. of test animals” value ([5]; 10 mg/kg po) was 0/3, the emetic activity ([5]; oral dose of 10 mg/kg) was “did not induce emetic effects” and the “safety: body weight and H&E of heart, lung and kidney” value [8] was “safety of compound L11 was observed; also recorded: could not induce weight loss or any major organ damage”.
With C=C[C@@]1(C)CC(=O)[C@]2(O)[C@@]3(C)[C@@H](O)CCC(C)(C)[C@@H]3[C@H](O)[C@H](OC(C)=O)[C@@]2(C)O1 [FSK, forskolin] the “levels of CCN2, p-AKT and p-ERK” value [1] was “significantly inhibited” and the “migration, transwell assay” value (MC38 cells [6]) was “quantitatively similar to those of roflumilast”.
NC(=O)c1ccc(-c2cc3ccc(O)cc3o2)cc1Nc1cc(F)cc(F)c1 [L9] showed an inhibition at 1 µM (PDE4) of 65.8% and an inhibition at 0.1 µM (PDE4) of 39.1%.
For O=S(=O)(NCCSSCCNS(=O)(=O)c1cc(Cl)ccc1Cl)c1cc(Cl)ccc1Cl [KC7F2], the “mRNA and protein levels of CCN2” value [1] was “significant decrease”.
With NC1(c2ccc(-c3nc4ccn5c(=O)[nH]nc5c4cc3-c3ccccc3)cc2)CCC1 [MK2206] the “migration, transwell assay” value (MC38 cells [6]) was “significantly inhibit MC38 metastases”.
Compound FC(F)Oc1ccc(-c2cc3ccccc3o2)cc1OC1CCCC1 [L12] has an IC50 (PDE4) of 910 nM, an inhibition at 1 µM (PDE4) of 73.3% and an inhibition at 0.1 µM (PDE4) of 13.2%.
Compound FC(F)Oc1ccc(-c2cc3ccccc3o2)cc1OCC1CC1 [L10] has an inhibition at 1 µM (PDE4) of 37.4%.
